Values quoted from earlier work, collected in article PMC3845493 (Molecular pharmaceutics, 2013).

## PARVGLGITTVLTMTTQSSGSRA [Peptide M2GlyR]
  Aggregation in aqueous solutions: tendency to aggregate in aqueous solutions
